Experimental data from ChEMBL document CHEMBL5506065, “Discovery of Novel Non-Nucleoside Inhibitors Interacting with Dizinc Ions of CD73” (J Med Chem, 2024).
Calls of active or inactive are those of the source. The calls are words filed in the database; no cut-off is given here.

Assays:
[1] = Inhibition of recombinant human CD73 expressed in Escherichia coli using AMP as substrate measured after 60 mins by malachite green method
[2] = Inhibition of CD73 in human MDA-MB-231 cells using AMP substrate measured after 60 mins by cell based - malachite green phosphate assay; conditions: MDA-MB-231, 1 h
[3] = Half life in male Sprague-Dawley rat; type: ADME; conditions: in vivo
[4] = test system: E.G7-OVA; assay: In vivo antitumor activity against mouse E.G7-OVA T cell lymphoma subcutaneously injected in syngeneic C57/BL6 mouse model assessed as tumor growth inhibition at 2.5 mg/kg, iv qw (tail vein) measured after 16 days; type: functional; conditions: 384 h, time 16 day, read-out: TGI
[5] = Half life in male Sprague-Dawley rat at 10 mg/kg, po; type: ADME, organism-based; conditions: in vivo
[6] = Clearance in male Sprague-Dawley rat at 10 mg/kg, po; type: ADME, organism-based; conditions: in vivo
[7] = Clearance in male Sprague-Dawley rat at 1 mg/kg, iv; type: ADME, organism-based; conditions: in vivo
[8] = Cmax in male Sprague-Dawley rat at 10 mg/kg, po; type: ADME, organism-based; conditions: in vivo
[9] = Tmax in male Sprague-Dawley rat at 1 mg/kg, iv; type: ADME, organism-based; conditions: in vivo
[10] = Cmax in male Sprague-Dawley rat at 1 mg/kg, iv; type: ADME, organism-based; conditions: in vivo
[11] = AUC (0 to t) in male Sprague-Dawley rat at 1 mg/kg, iv; type: ADME, organism-based; conditions: in vivo
[12] = AUC (0 to t) in male Sprague-Dawley rat at 10 mg/kg, po; type: ADME, organism-based; conditions: in vivo
[13] = Tmax in male Sprague-Dawley rat at 10 mg/kg, po; type: ADME, organism-based; conditions: in vivo
[14] = Half life in male Sprague-Dawley rat at 1 mg/kg, iv; type: ADME, organism-based; conditions: in vivo
[15] = test system: E.G7-OVA; assay: In vivo antitumor activity against mouse E.G7-OVA T cell lymphoma subcutaneously injected in syngeneic C57/BL6 mouse model assessed as tumor growth inhibition in presence of KG035 at 50 mg/kg, ip measured after 14 days; type: functional; conditions: 336 h, time 14 day, read-out: TGI
[16] = test system: E.G7-OVA; assay: (§1) In vivo antitumor immunity against mouse E.G7-OVA T cell lymphoma subcutaneously injected in syngeneic C57/BL6 mouse model assessed as tumor-infiltrating lymphocyte by measuring increase in CD8 positive T cell in total CD45 positive cells in presence of doxorubicin at 1 mg/kg, iv qd (tail vein) measured after 16 days by flow cytometry; type: functional, organism-based; conditions: time 16.0 day
[17] = test system: E.G7-OVA; assay: as §1, with “cells” for “cells in presence of doxorubicin”; type: functional, organism-based; conditions: time 16.0 day
[18] = test system: E.G7-OVA; assay: In vivo antitumor activity against mouse E.G7-OVA T cell lymphoma subcutaneously injected in syngeneic C57/BL6 mouse model assessed as tumor growth inhibition at 50 mg/kg, ip measured after 14 days; type: functional; conditions: 336 h, time 14 day, read-out: TGI
[19] = test system: E.G7-OVA; assay: In vivo antitumor activity against mouse E.G7-OVA T cell lymphoma subcutaneously injected in syngeneic C57/BL6 mouse model assessed as tumor growth inhibition at 1 mg/kg, iv qd (tail vein) measured after 16 days; type: functional; conditions: 384 h, time 16 day, read-out: TGI
[20] = test system: E.G7-OVA; assay: (§2) In vivo antitumor immunity against mouse E.G7-OVA T cell lymphoma subcutaneously injected in syngeneic C57/BL6 mouse model assessed as tumor-infiltrating lymphocyte by measuring increase in CD8 positive/Treg ratio at 1 mg/kg, iv qd (tail vein) measured after 16 days by flow cytometry; type: functional, organism-based; conditions: time 16.0 day
[21] = test system: E.G7-OVA; assay: as §2, with “ratio in presence of doxorubicin” for “ratio”; type: functional, organism-based; conditions: time 16.0 day
[22] = Toxicity in C57/BL6 mouse subcutaneously injected with mouse E.G7-OVA T cells assessed as change in body weight at 1 mg/kg, iv qd treated for 16 days; type: organism-based, T-cell; conditions: in vivo, 384 h, time 16 day
[23] = test system: E.G7-OVA; assay: In vivo antitumor activity against mouse E.G7-OVA T cell lymphoma subcutaneously injected in syngeneic C57/BL6 mouse model assessed as tumor growth inhibition in presence of doxorubicin at 1 mg/kg, iv qd (tail vein) measured after 16 days; type: functional; conditions: 384 h, time 16 day, read-out: TGI

| IC50 [1] [nM] | IC50 [2] [nM] | SMILES | other results |
| --- | --- | --- | --- |
| > 20000 | 7100 | CCOC(=O)C(Cc1ccccc1)(OCc1n[nH]c2cc(-n3nnc4c(F)cc(Br)cc43)ccc12)C(=O)O (stereo not given) | – |
| 590 | 1030 | Cc1cccc(C)c1CC(OCc1n[nH]c2cc(-n3nnc4c(F)cc(Br)cc43)ccc12)(C(=O)O)C(=O)O | – |
| 200 | 130 | O=C(O)C(Cc1ccccc1F)(OCc1n[nH]c2cc(-n3nnc4c(F)cc(Br)cc43)ccc12)C(=O)O | – |
| 130 | 90 | O=C(O)C(Cc1ccccc1)(OCc1n[nH]c2cc(-n3nnc4c(F)cc(Cl)cc43)ccc12)C(=O)O | half-life [3]: 2.1 h |
| 200 | 280 | Nc1cc(F)c2nnn(-c3ccc4c(COC(Cc5ccccc5)(C(=O)O)C(=O)O)n[nH]c4c3)c2c1 | – |
| 530 | 630 | CC(=O)Nc1nc(CC(OCc2n[nH]c3cc(-n4nnc5c(F)cc(Br)cc54)ccc23)(C(=O)O)C(=O)O)cs1 | – |
| 1030 | 610 | Cn1cc(CC(OCc2n[nH]c3cc(-n4nnc5c(F)cc(Br)cc54)ccc23)(C(=O)O)C(=O)O)c(C(F)(F)F)n1 | – |
| 690 | 380 | CC(C)(C#N)c1ccc(CC(OCc2n[nH]c3cc(-n4nnc5c(F)cc(Br)cc54)ccc23)(C(=O)O)C(=O)O)cc1 | – |
| 2070 | 320 | O=C(O)C(Cc1ccc(C(F)(F)F)cc1)(OCc1n[nH]c2cc(-n3nnc4c(F)cc(Br)cc43)ccc12)C(=O)O | – |
| 780 | 1620 | O=C(O)C(Cc1ccc(-c2ccccc2)cc1)(OCc1n[nH]c2cc(-n3nnc4c(F)cc(Br)cc43)ccc12)C(=O)O | – |
| 890 | 230 | O=C(O)C(Cc1ccc(C(F)(F)F)o1)(OCc1n[nH]c2cc(-n3nnc4c(F)cc(Br)cc43)ccc12)C(=O)O | – |
| 8700 | 3400 | O=C(O)C(OCc1n[nH]c2cc(-n3nnc4c(F)cc(Br)cc43)ccc12)C(=O)O | – |
| 35000 | 340 | Cc1ccccc1CC(OCc1n[nH]c2cc(-n3nnc4c(F)cc(Br)cc43)ccc12)(C(=O)O)C(=O)O | – |
| 60 | 40 | O=C(O)C(Cc1ccccc1)(OCc1n[nH]c2cc(-n3nnc4c(F)cc(Br)cc43)ccc12)C(=O)O | inhibition in vivo at 50 mg/kg [15]: 47.5%; Activity [16]: Active; Activity [17]: Active; half-life [5]: 1.2 h; CL/F [6]: 1210 mL/min/kg; inhibition in vivo at 50 mg/kg [18]: 41.1%; clearance [7]: 2.41 mL/min/kg; Cmax [8]: 124 ng/mL; Tmax [9]: 4.8 min; inhibition in vivo at 1 mg/kg [19]: 12.5%; Activity [20]: Active; Cmax [10]: 14500 ng/mL; AUC(0-t) [11]: 7220 ng·h/mL; AUC(0-t) [12]: 144 ng·h/mL; Activity [21]: Active; Tmax [13]: 0.5 h; Activity [22]: Non-Toxic; inhibition in vivo at 1 mg/kg [23]: 44.2%; half-life [14]: 1 h |
| 190 | 180 | O=C(O)C(Cc1cn[nH]c1)(OCc1n[nH]c2cc(-n3nnc4c(F)cc(Br)cc43)ccc12)C(=O)O | – |
| 1100 | 1520 | Cc1cc(F)c2nnn(-c3ccc4c(COC(Cc5ccccc5)(C(=O)O)C(=O)O)n[nH]c4c3)c2c1 | – |
| 540 | 400 | O=C(O)C(Cc1ccc(F)cc1)(OCc1n[nH]c2cc(-n3nnc4c(F)cc(Br)cc43)ccc12)C(=O)O | – |
| 370 | 60 | Cc1noc(C)c1CC(OCc1n[nH]c2cc(-n3nnc4c(F)cc(Br)cc43)ccc12)(C(=O)O)C(=O)O | – |

More lines, now with the values behind:

| SMILES | IC50 [1] [nM] | IC50 [2] [nM] | other results |
| --- | --- | --- | --- |
| O=C(O)C(Cc1ccccc1)(OCc1n[nH]c2cc(-n3nnc4c(F)cc(NCc5ccccc5)cc43)ccc12)C(=O)O | 330 | 550 | – |
| C[C@H](Nc1cc(Cl)nc2c1cnn2[C@@H]1O[C@H](COP(=O)(O)CP(=O)(O)O)[C@@H](O)[C@H]1O)c1ccccc1F [QUEMLICLUSTAT] | 1 | 1 | – |
| O=C(O)C(Cc1ccccc1)(OCc1n[nH]c2cc(-n3nnc4c(F)cc(NC5CCCC5)cc43)ccc12)C(=O)O | 490 | 560 | – |
| Cc1nnc(-c2c[nH]c(=O)[nH]c2=O)cc1[C@H]1C[C@@H]1C(C)C [LY-3475070] | 170 | 40 | – |
| COc1cccc2c1C(=O)c1c(O)c3c(c(O)c1C2=O)C[C@@](O)(C(=O)CO)C[C@@H]3O[C@H]1C[C@H](N)[C@H](O)[C@H](C)O1 [DOXORUBICIN] | – | – | inhibition in vivo at 2.5 mg/kg [4]: 34.7% |
| C=Cc1cc(F)c2nnn(-c3ccc4c(COC(Cc5ccccc5)(C(=O)O)C(=O)O)n[nH]c4c3)c2c1 | 900 | 950 | – |
| [2H]C([2H])(OC(Cc1ccccc1)(C(=O)O)C(=O)O)c1n[nH]c2cc(-n3nnc4c(F)cc(Cl)cc43)ccc12 | – | 100 | half-life [5]: 2.1 h; CL/F [6]: 1820 mL/min/kg; clearance [7]: 1.93 mL/min/kg; Cmax [8]: 68.6 ng/mL; Tmax [9]: 4.8 min; Cmax [10]: 19100 ng/mL; AUC(0-t) [11]: 8740 ng·h/mL; AUC(0-t) [12]: 99.5 ng·h/mL; Tmax [13]: 0.3 h; half-life [14]: 2.5 h |
| CC(C)OCc1cc(F)c2nnn(-c3ccc4c(COC(Cc5ccccc5)(C(=O)O)C(=O)O)n[nH]c4c3)c2c1 | 1550 | 1770 | – |
| O=C(O)C(Cc1ccccc1)(OCc1n[nH]c2cc(-n3nnc4c(F)cc(C5CCC5)cc43)ccc12)C(=O)O | 1420 | 620 | – |
| O=C(O)C(Cc1ccccc1)(OCc1n[nH]c2cc(-n3nnc4c(F)cc(NCc5ccccc5C5CC5)cc43)ccc12)C(=O)O | 700 | 620 | – |
| O=C(O)C(Cc1ccccc1)(OCc1n[nH]c2cc(-n3nnc4c(F)cc([C@@H](O)CO)cc43)ccc12)C(=O)O | 1310 | 1100 | – |
| Fc1cc(Br)cc2c1nnn2-c1ccc2cn[nH]c2c1 | > 20000 | > 20000 | – |
| O=C(O)C(Cc1ccccc1)(OCc1n[nH]c2cc(-n3nnc4c(F)cc(C5CC5)cc43)ccc12)C(=O)O | 1430 | 1000 | – |
